Results taken from US20200315241A1 (Nude Nicotine, Inc., priority 2017, published 2020).
Like-named read-outs stand apart in the source and are kept apart here.

Assays:
[1] = cited from earlier work
[2] = nicotine salt complex
[3] = free-base nicotine; depending on concentration; cited from earlier work
respiratory tract = conditions: user perception, nicotine citrate compared with nicotine hexanoate
[4] = Table 7, nicotine salt (organic acid)
[5] = Table 7, nicotine salt (organic acid), second value
[6] = Table 7, nicotine salt (organic acid), third value printed in the cell
[7] = Table 5, organic acid, second value

| Compound | pKa [1, 4] | other results |
| --- | --- | --- |
| Nicotine isocaproate | 5.09 |  |
| CN1CCCC1c1cccnc1.O=C(O)C=C(CC(=O)O)C(=O)O (stereo not drawn) [Nicotine cis-aconitate] | 1.95 |  |
| Nicotine tryptophanate | 2.83 |  |
| CN1CCCC1c1cccnc1.O=C(O)c1cc(C(=O)O)cc(C(=O)O)c1 [Nicotine trimesate] | 3.12 | pKa [1, 5]: 3.89; pKa [1, 6]: 4.70 |
| Nicotine valinate | 2.32 |  |
| Nicotine 3-hydroxyglutarate | 3.52 |  |
| CN1CCCC1c1cccnc1.NCC(=O)O (centres unmarked) [Nicotine glycinate] | 2.34 |  |
| C#CC(=O)O.CN1CCCC1c1cccnc1 (centres unmarked) [Nicotine propiolate] | 1.84 |  |
| Nicotine valerate | 4.84 |  |
| CN1CCCC1c1cccnc1.O=C(O)CC(C(=O)O)C(O)C(=O)O (centres unmarked) [Nicotine isocitrate] | 3.29 | pKa [1, 5]: 4.71; pKa [1, 6]: 6.40 |
| O=C(O)CC(O)C(=O)O (centres unmarked) [Malic Acid] |  | pKa ([1]; Table 5, organic acid): 3.51; pKa [1, 7]: 5.03; pKa1 ([1]; pH for binding of second carboxylic acid group): 5.03 |
| CCC(=O)O.CN1CCCC1c1cccnc1 (centres unmarked) [Nicotine propionate] |  | pH [2]: ~6.5 |
| CN1CCCC1c1cccnc1.O=C(O)C=C(CC(=O)O)C(=O)O (stereo not drawn) [Nicotine trans-aconitate] | 2.80 | pKa [1, 5]: 4.46 |
| CN1CCCC1c1cccnc1.C[C@H](N)C(=O)O (centres unmarked) [Nicotine alanate] | 2.34 |  |
| Nicotine methioninate | 2.28 |  |
| O=C(O)/C=C(/CC(=O)O)C(=O)O [cis-Aconitic Acid] |  | pKa ([1]; Table 5, organic acid): 1.95 |
| CN1CCCC1c1cccnc1 (centres unmarked) [nicotine] |  | pH [3]: ~10 |
| CN1CCCC1c1cccnc1.O=C(O)C(=O)O.O=C(O)CC(O)C(=O)O (centres unmarked) [Nicotine N-malate-N′-oxalate] |  | pH [2]: ~5.5 |
| Nicotine phthalate | 2.76 | pKa [1, 5]: 4.92 |
| CN1CCCC1c1cccnc1.O=C(O)CC(O)(CC(=O)O)C(=O)O [Nicotine citrate] |  | throat hit / sensation in the respiratory tract (respiratory tract): stronger throat hit |
| Nicotine hexanoate | 4.88 |  |

| Compound | pKa [1, 4] | other results |
| --- | --- | --- |
| Nicotine cinnamate | 4.44 |  |
| Nicotine cysteinate | 1.96 |  |
| CC(=O)O.CN1CCCC1c1cccnc1 (centres unmarked) [Nicotine acetate] |  | pH [2]: ~6.5 |
| Nicotine asparaginate | 2.02 |  |
| CC(=O)CC(=O)O [3-Oxobutanoic Acid (Acetoacetic Acid), 3-Oxobutanoic Acid] |  | pKa ([1]; Table 5, organic acid): 3.58 |
| Nicotine acetylsalicylate | 3.49 |  |
| CC(=O)C(=O)O [Pyruvic Acid] |  | pKa ([1]; Table 5, organic acid): 2.50 |
| Nicotine levulinate | 4.64 | pKa [1]: 4.64 |
| Nicotine pyruvate | 2.50 |  |
| Nicotine vanillate | 4.51 |  |
| CN1CCCC1c1cccnc1.N[C@@H](Cc1ccccc1)C(=O)O (centres unmarked) [Nicotine phenylalanate] | 1.83 |  |
| Nicotine lysinate | 2.18 |  |
| CN1CCCC1c1cccnc1.O=C(O)CC(O)C(=O)O (centres unmarked) [Nicotine malate] |  | pH [2]: around 6.5 |
| Nicotine acetoacetate | 3.58 |  |
| Oxalic Acid |  | pKa ([1]; Table 5, organic acid): 1.46; pKa [1, 7]: 4.40 |
| Nicotine 2-hydroxyisocaproate | 4.26 |  |
| O=C(O)C[C@H](C(=O)O)[C@@H](O)C(=O)O [Isocitric Acid] |  | pKa ([1]; Table 5, organic acid): 3.29; pKa [1, 7]: 4.71; pKa ([1]; Table 5, organic acid, third value printed in the cell): 6.40 |
| Nicotine gluconate | 3.86 |  |
| Nicotine glutarate | 4.34 |  |
| Nicotine 4-hydroxybenzoate | 4.54 |  |
